The source of these data is patent US20140323418A1, “SELECTIVE KINASE INHIBITORS” (PORTOLA PHARMACEUTICALS, INC., priority 2011, published 2014).

The target of the test is T1, full length active recombinant SYK enzyme (Homo sapiens, UniProt P43405).
T1 construct: full length active recombinant SYK enzyme (Millipore, Calif.); purchased Millipore
The test can be described thus: Inhibition of Syk tyrosine phosphorylation activity (LANCE TR-FRET kinase assay). It counts as biochemical. To be noted: 1 nM SYK, 550 nM substrate, 100 μM ATP, 1 hour room temperature. (Time-resolved FRET reads energy transfer from a long-lived donor to a nearby acceptor.)
In general, IC50 refers to the point on the concentration scale where inhibition reaches its midpoint. Take `CC[C@@H](Nc1ncc(C(N)=O)c(Nc2ccc(-c3cnns3)cc2)n1)C(N)=O` [Example 59, (R)-4-((4-(1,2,3-thiadiazol-5-yl)phenyl)amino)-2-((1-amino-1-oxobutan-2-yl)amino)pyrimidine-5-carboxamide]: the half-inhibitory concentration (IC50) was 10 to 100 nM.
For `NC(=O)c1cnc(N[C@H](C2CC2)C2(N)CC2)nc1Nc1cccc(F)c1` [Example 156, (R)-2-(1-(1-aminocyclopropyl)(cyclopropyl)methylamino)-4-(3-fluorophenylamino)pyrimidine-5-carboxamide], the IC50 lay within 1 to 10 nM.
For `Cc1cc(Nc2nc(N[C@@H]3CCCC[C@@H]3N)ncc2C(N)=O)sn1` [Example 49, 2-(((1R,2S)-2-aminocyclohexyl)amino)-4-((3-methylisothiazol-5-yl)amino)pyrimidine-5-carboxamide] the value was 1 to 10 nM.
For `Cc1cccc(Nc2nc(N[C@@H](CN)CC(F)F)ncc2C(N)=O)c1` [Example 89, (R)-4-(m-toluidino)-2-(1-amino-4,4-difluorobutan-2-ylamino)pyrimidine-5-carboxamide] the value was 10 to 100 nM.
As to `NC(=O)c1cnc(N[C@H](C2CC2)C2(N)CC2)nc1Nc1ccc(F)cc1` [Example 170, (R)-2-(1-(1-aminocyclopropyl)(cyclopropyl)methylamino)-4-(4-fluorophenylamino)pyrimidine-5-carboxamide], the IC50 fell in the range of 100 to 1000 nM.
For `Cn1ccc2c(Nc3nc(NC[C@@H](N)CC(F)F)ncc3C(N)=O)ccc(F)c21` [Example 86, (S)-2-(2-amino-4,4-difluorobutylamino)-4-(7-fluoro-1-methyl-1H-indol-4-ylamino)pyrimidine-5-carboxamide], the IC50 is 10 to 100 nM.
With `Cc1ccc(Nc2nc(N[C@H]3[C@@H](N)CCCC3(F)F)ncc2C(N)=O)cc1` [Example 38, 2-(((1S,6S)-6-amino-2,2-difluorocyclohexyl)amino)-4-(p-tolylamino)pyrimidine-5-carboxamide] the figure was 10 to 100 nM; with `CCn1ccc2c(Nc3nc(NCC(C)C)ncc3C(N)=O)cccc21` [Example 116, 4-(1-ethyl-1H-indol-4-ylamino)-2-(isobutylamino)pyrimidine-5-carboxamide], 100 to 1000 nM.
For `NC(=O)c1cnc(N[C@@H]2CCCC[C@@H]2N)nc1Nc1cncc(F)c1` [Example 45], the IC50 lay in the range of 10 to 100 nM.
On to `Cc1cccc(Nc2nc(N[C@@H]3CC[C@@H](C(=O)N4CC(F)(F)C4)C[C@@H]3N)ncc2C(N)=O)c1` (racemic) [Example 192, 2-((1R,2S,4R)-2-amino-4-(3,3-difluoroazetidine-1-carbonyl)cyclohexylamino)-4-(m-tolylamino)pyrimidine-5-carboxamide], for which the IC50 is 10 to 100 nM.
Consider `Cn1ccc2c(Nc3nc(NC[C@@H](N)CC(F)F)ncc3C(N)=O)cccc21` [Example 85, (S)-2-(2-amino-4,4-difluorobutylamino)-4-(1-methyl-1H-indol-4-ylamino)pyrimidine-5-carboxamide], for which the IC50 lay in the range of 1 to 10 nM.
For the compound `CC(C)[C@@H](Nc1ncc(C(N)=O)c(Nc2cc(F)cc(F)c2)n1)C1(N)CC1` [Example 160, (R)-2-(1-(1-aminocyclopropyl)-2-methylpropylamino)-4-(3,5-difluorophenylamino)pyrimidine-5-carboxamide], the IC50 was in the range of 10 to 100 nM.
Take `Cc1csc(Nc2nc(N[C@H](CC(C)C)C(N)=O)ncc2C(N)=O)c1` [Example 194, (R)-2-(1-amino-4-methyl-1-oxopentan-2-ylamino)-4-(4-methylthiophen-2-ylamino)pyrimidine-5-carboxamide]: the IC50 was in the range of 10 to 100 nM.
Take `CC[C@@H](Nc1ncc(C(N)=O)c(Nc2cnn3ccccc23)n1)C(N)=O` [Example 56, (R)-2-((1-amino-1-oxobutan-2-yl)amino)-4-(pyrazolo[1,5-a]pyridin-3-ylamino)pyrimidine-5-carboxamide]: the IC50 is 10 to 100 nM.
As to `Cc1cccc(Nc2nc(N[C@@H]3CC[C@@H](C(=O)O)C[C@@H]3N)ncc2C(N)=O)c1` (racemic) [Example 187, (1R,3S,4R)-3-amino-4-(5-carbamoyl-4-(m-tolylamino)pyrimidin-2-ylamino)cyclohexanecarboxylic acid], the IC50 is 1 to 10 nM.
For the compound `CC(C)[C@@H](Nc1ncc(C(N)=O)c(Nc2cccc(-c3ncccn3)c2)n1)C1(N)CC1` [Example 136, (R)-2-(1-(1-aminocyclopropyl)-2-methylpropylamino)-4-(3-(pyrimidin-2-yl)phenylamino)pyrimidine-5-carboxamide], the IC50 fell in the range of 1 to 10 nM.
For `CC[C@@H](Nc1ncc(C(N)=O)c(Nc2ccc3ccncc3c2)n1)C(N)=O` [Example 71, (R)-2-(1-amino-1-oxobutan-2-ylamino)-4-(isoquinolin-7-ylamino)pyrimidine-5-carboxamide] the value was 10 to 100 nM; for `CC[C@@H](Nc1ncc(C(N)=O)c(Nc2ccc(-c3cncs3)cc2)n1)C(N)=O` [Example 58, (R)-2-((1-amino-1-oxobutan-2-yl)amino)-4-((4-(thiazol-5-yl)phenyl)amino)pyrimidine-5-carboxamide], 10 to 100 nM.
With `CC[C@@H](Nc1ncc(C(N)=O)c(Nc2cccc(C3=NCCCN3)c2)n1)C1(N)CC1` [Example 133, (R)-2-(1-(1-aminocyclopropyl)propylamino)-4-(3-(1,4,5,6-tetrahydropyrimidin-2-yl)phenylamino)pyrimidine-5-carboxamide] the figure was 100 to 1000 nM.
Turning to `NC(=O)c1cnc(N[C@@H]2CCCC[C@@H]2CO)nc1Nc1cccc(-n2nccn2)c1` (racemic) [Example 256, 4-((3-(2H-1,2,3-triazol-2-yl)phenyl)amino)-2-(((1R,2S)-2-(hydroxymethyl)cyclohexyl)amino)pyrimidine-5-carboxamide], the IC50 lay in the range of 100 to 1000 nM.
On to `Cn1ncc2c(Nc3nc(N[C@H](C4CC4)C4(N)CC4)ncc3C(N)=O)cccc21` [Example 162, (R)-2-(1-(1-aminocyclopropyl)(cyclopropyl)methylamino)-4-(1-methyl-1H-indazol-4-ylamino)pyrimidine-5-carboxamide], for which the IC50 was 1 to 10 nM.
In the case of `CC[C@@H](Nc1ncc(C(N)=O)c(Nc2cnc3ccccc3c2)n1)C1(N)CC1` [Example 154, (R)-2-(1-(1-aminocyclopropyl)propylamino)-4-(quinolin-3-ylamino)pyrimidine-5-carboxamide], the IC50 was 1 to 10 nM.
With `COc1ccc(Nc2ncc(C(N)=O)c(N[C@H]3CC[C@@H](N)CC3)n2)cc1` [Example 185, 4-(4-aminocyclohexylamino)-2-(4-methoxyphenylamino)pyrimidine-5-carboxamide] the figure was 10 to 100 nM; with `NC(=O)c1cnc(N[C@@H]2CCOC[C@@H]2N)nc1Nc1csc2ncccc12` [Example 179, 2-((3R,4R)-3-aminotetrahydro-2H-pyran-4-ylamino)-4-(thieno[2,3-b]pyridin-3-ylamino)pyrimidine-5-carboxamide], 10 to 100 nM.
With `Cc1ccc(Nc2nc(N[C@H](C)C3(N)CC3)ncc2C(N)=O)cc1` [Example 146, (R)-2-(1-(1-aminocyclopropyl)ethylamino)-4-(p-tolylamino)pyrimidine-5-carboxamide] the figure was 10 to 100 nM.
